No end group written: not given here.
How the values were obtained:
uninfected cells = details: up to 200 μg/ml
herpes viruses = assay: Antiviral activity of synthetic Herp versions (13, 10 and 5 amino acids); format: cell-based; details: synthetic versions of Herp compared
Method: ID. […] The sequencing and synthesizing was contracted out to the Protein Core Laboratory of Baylor College of Medicine, Houston, Tex.
Infectivity Inhibition of HSV-1 and HSV-2 Viruses by Synthetic Herp: For comparison, Herpoxin and the synthetic Herps were tested in Vero cell cultures infected with HSV-1 or HSV-2 viruses. The cells were infected in serial concentrations from 10^2 to 10^8. Three wells were used for each concentration. After absorption of the virus the cultures were divided into three groups. Group one received medium containing PBS as a […] control, group two received medium containing 10 μg/ml of Herpoxin (natural Herp) and in the remaining group the medium was incorporated with 10 μg/ml synthetic Herp (Syn-Herp-10 amino acid (AA) version). The tests were read after six days and TCID/50 were calculated from CPE.

Substance	effect on the respective uninfected cells (uninfected cells)	antiviral activity / inhibition of herpes viruses (herpes viruses)
NLYQFKNMIQ [Syn Herp, Asn-Leu-Tyr-Gln-Phe-Lys-Asn-Met-Ile-Gln]	no effect	–
Asn-Leu-Tyr-Gln-Phe (NLYQF; SYNTHESIZED. CORRESPONDS TO POSITIONS 1-5 OF SEQ. ID. NO. 1.) [SEQ. ID. NO. 3, synthetic Herp of 5 amino acids from the N-terminal]	–	good results
NLYQFKNMIQQFL [SEQ. ID. NO. 1]	–	good results

From patent publication US7399825B2, “Synthetic peptide, inhibitor to DNA viruses” (priority 2003, dated 2008)
